How the values were obtained:
Sulfotransferase 1E1 [1] = target: T1, Sulfotransferase 1E1 (Homo sapiens, UniProt P49888); test: Substrate activity at SULT1E1 (unknown origin) expressed in baculovirus infected Sf9 cells assessed as substrate Vmax/Km ratio level incubated for 15 mins using [35S-]PAPS as sulfate donor by TLC analysis; conditions: sf9, 0.25 h
T1 sequence (P49888 whole entry): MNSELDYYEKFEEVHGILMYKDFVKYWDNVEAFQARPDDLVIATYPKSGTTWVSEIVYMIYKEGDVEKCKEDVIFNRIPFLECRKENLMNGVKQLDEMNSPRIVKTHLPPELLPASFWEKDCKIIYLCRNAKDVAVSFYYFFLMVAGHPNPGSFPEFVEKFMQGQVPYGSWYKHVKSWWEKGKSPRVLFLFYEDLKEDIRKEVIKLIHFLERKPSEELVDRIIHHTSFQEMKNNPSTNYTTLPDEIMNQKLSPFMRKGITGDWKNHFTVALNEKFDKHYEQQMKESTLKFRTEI

Sulfotransferase 2A1 [2] = target: T2, Sulfotransferase 2A1 (Homo sapiens, UniProt Q06520); test: Substrate activity at SULT2A1 (unknown origin) expressed in baculovirus infected Sf9 cells assessed as substrate Km incubated for 15 mins using [35S-]PAPS as sulfate donor by TLC analysis; conditions: sf9, 0.25 h, BLD = below limit of detection
T2 sequence (Q06520 whole entry): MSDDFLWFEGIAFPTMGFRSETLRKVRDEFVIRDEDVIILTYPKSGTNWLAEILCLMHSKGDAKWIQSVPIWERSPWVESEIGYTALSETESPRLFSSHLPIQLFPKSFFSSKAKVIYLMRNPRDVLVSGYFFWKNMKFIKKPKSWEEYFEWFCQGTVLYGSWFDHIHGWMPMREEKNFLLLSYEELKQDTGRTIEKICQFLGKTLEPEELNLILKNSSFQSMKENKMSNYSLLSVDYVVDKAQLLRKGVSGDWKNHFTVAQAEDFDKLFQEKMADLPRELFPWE

Sulfotransferase 2A1 [3] = target: T2, Sulfotransferase 2A1; test: Substrate activity at SULT2A1 (unknown origin) expressed in baculovirus infected Sf9 cells assessed as substrate Vmax incubated for 15 mins using [35S-]PAPS as sulfate donor by TLC analysis; conditions: sf9, 0.25 h, BLD = below limit of detection
Sulfotransferase 2A1 [4] = target: T2, Sulfotransferase 2A1; test: Substrate activity at SULT2A1 (unknown origin) expressed in baculovirus infected Sf9 cells assessed as substrate Vmax/Km ratio incubated for 15 mins using [35S-]PAPS as sulfate donor by TLC analysis; conditions: sf9, 0.25 h, BLD = below limit of detection
Sulfotransferase 1A1 [5] = target: T3, Sulfotransferase 1A1 (Homo sapiens, UniProt P50225); test: Substrate activity at SULT1A1 (unknown origin) expressed in baculovirus infected Sf9 cells assessed as substrate Km incubated for 15 mins using [35S-]PAPS as sulfate donor by TLC analysis; conditions: sf9, 0.25 h, BLD = below limit of detection
T3 sequence (P50225 whole entry): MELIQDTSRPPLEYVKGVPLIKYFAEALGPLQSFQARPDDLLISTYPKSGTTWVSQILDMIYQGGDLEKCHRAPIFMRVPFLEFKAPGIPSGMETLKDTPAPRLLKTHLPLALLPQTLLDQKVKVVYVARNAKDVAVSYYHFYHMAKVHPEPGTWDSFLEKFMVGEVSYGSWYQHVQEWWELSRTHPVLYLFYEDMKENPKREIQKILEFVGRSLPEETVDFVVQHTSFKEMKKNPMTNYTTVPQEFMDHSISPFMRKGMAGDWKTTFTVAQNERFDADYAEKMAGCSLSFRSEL

Sulfotransferase 1A1 [6] = target: T3, Sulfotransferase 1A1; test: Substrate activity at SULT1A1 (unknown origin) expressed in baculovirus infected Sf9 cells assessed as substrate Vmax incubated for 15 mins using [35S-]PAPS as sulfate donor by TLC analysis; conditions: sf9, 0.25 h, BLD = below limit of detection
Sulfotransferase 1A1 [7] = target: T3, Sulfotransferase 1A1; test: Substrate activity at SULT1A1 (unknown origin) expressed in baculovirus infected Sf9 cells assessed as substrate Vmax/Km ratio incubated for 15 mins using [35S-]PAPS as sulfate donor by TLC analysis; conditions: sf9, 0.25 h, BLD = below limit of detection
Sulfotransferase 1E1 [8] = target: T1, Sulfotransferase 1E1; test: Substrate activity at SULT1E1 (unknown origin) expressed in baculovirus infected Sf9 cells assessed as substrate Km incubated for 15 mins using [35S-]PAPS as sulfate donor by TLC analysis; conditions: sf9, 0.25 h, BLD = below limit of detection
Sulfotransferase 1E1 [9] = target: T1, Sulfotransferase 1E1; test: Substrate activity at SULT1E1 (unknown origin) expressed in baculovirus infected Sf9 cells assessed as substrate Vmax incubated for 15 mins using [35S-]PAPS as sulfate donor by TLC analysis; conditions: sf9, 0.25 h, BLD = below limit of detection
[10] = Drug uptake in lung of Sprague-Dawley rat with lung inflammation assessed as sulfated form formation at 2 to 2.5 mCi dosed via injection measured after 10 to 15 mins post dose by microPET imaging method; assay type: ADME, organism-based; conditions: in vivo
[11] = Drug uptake in liver of smoker human subject at 10.5 mCi by microPET imaging method; assay type: ADME
[12] = Drug uptake in kidney of smoker human subject at 10.5 mCi by microPET imaging method; assay type: ADME
[13] = Drug uptake in lung of smoker human subject at 10.5 mCi by microPET imaging method; assay type: ADME
[14] = Drug uptake in liver of non-smoker human subject at 10 mCi by microPET imaging method; assay type: ADME
[15] = Drug uptake in kidney of non-smoker human subject at 10 mCi by microPET imaging method; assay type: ADME
[16] = Drug uptake in lung of non-smoker human subject at 10 mCi by microPET imaging method; assay type: ADME

Structure (SMILES)	Vmax/Km (Sulfotransferase 1E1 [1])	Km (Sulfotransferase 2A1 [2])	Vmax (Sulfotransferase 2A1 [3])	Vmax/Km (Sulfotransferase 2A1 [4])	Km (Sulfotransferase 1A1 [5])	Vmax (Sulfotransferase 1A1 [6])	Vmax/Km (Sulfotransferase 1A1 [7])	other results
Oc1ccc2[nH]cnc2c1	–	Bld	Bld	Bld	–	–	–	Km (Sulfotransferase 1E1 [8]): Bld; Vmax (Sulfotransferase 1E1 [9]): Bld; Vmax/Km (Sulfotransferase 1E1 [1]; BLD = below limit of detection): Bld
Oc1ccc2ccoc2c1	0.03	Bld	Bld	Bld	–	–	–	–
Oc1ccc2ncsc2c1	0.04	Bld	Bld	Bld	–	–	–	–
Oc1ccc2ccsc2c1	0.25	Bld	Bld	Bld	–	–	–	–
Oc1ccc2[nH]ccc2c1	–	Bld	Bld	Bld	–	–	–	Km (Sulfotransferase 1E1 [8]): Bld; Vmax (Sulfotransferase 1E1 [9]): Bld; Vmax/Km (Sulfotransferase 1E1 [1]; BLD = below limit of detection): Bld
Oc1ccc2cc[nH]c2c1	–	Bld	Bld	Bld	–	–	–	Km (Sulfotransferase 1E1 [8]): Bld; Vmax (Sulfotransferase 1E1 [9]): Bld; Vmax/Km (Sulfotransferase 1E1 [1]; BLD = below limit of detection): Bld
Oc1ccc2ncoc2c1	0.006	Bld	Bld	Bld	–	–	–	–
[11CH3]Nc1ccc(-c2nc3ccc(O)cc3s2)cc1 [PITTSBURGH COMPOUND B]	–	–	–	–	–	–	–	Drug uptake [10]: Active; Drug uptake [11]: Active; Drug uptake [12]: Active; Drug uptake [13]: Active; Drug uptake [14]: Active; Drug uptake [15]: Active; Drug uptake [16]: Active
Oc1ccc2occc2c1	0.01	Bld	Bld	Bld	–	–	–	–
Oc1ccc2sccc2c1	0.08	Bld	Bld	Bld	–	–	–	–
Cc1nc2cc(O)ccc2s1	0.3	Bld	Bld	Bld	–	–	–	–
Oc1ccc2ccccc2c1 [BETANAPHTHOL]	0.57	–	–	–	–	–	–	–

The next lines start with results.

Vmax/Km (Sulfotransferase 1E1 [1])	Km (Sulfotransferase 2A1 [2])	Vmax (Sulfotransferase 2A1 [3])	Vmax/Km (Sulfotransferase 2A1 [4])	Km (Sulfotransferase 1A1 [5])	Vmax (Sulfotransferase 1A1 [6])	Vmax/Km (Sulfotransferase 1A1 [7])	Structure (SMILES)	other results
1.39	Bld	Bld	Bld	–	–	–	CNc1ccc(-c2nc3cc(O)ccc3s2)cc1	–
5.64	Bld	Bld	Bld	Bld	Bld	Bld	Oc1ccc2nc(-c3ccc(I)cc3)sc2c1	–
2.47	Bld	Bld	Bld	–	–	–	CN(C)c1ccc(-c2nc3cc(O)ccc3s2)cc1	–
2.19	Bld	Bld	Bld	Bld	Bld	Bld	COc1ccc(-c2nc3ccc(O)cc3s2)cc1	–
29.2	Bld	Bld	Bld	Bld	Bld	Bld	O=[N+]([O-])c1ccc(-c2nc3ccc(O)cc3s2)cc1	–
3.22	Bld	Bld	Bld	–	–	–	Oc1ccc2nc(-c3ccccc3)sc2c1	–
1.7	Bld	Bld	Bld	Bld	Bld	Bld	Nc1ccc(-c2nc3ccc(O)cc3s2)cc1	–
1.28	Bld	Bld	Bld	Bld	Bld	Bld	CNc1ccc(-c2nc3ccc(O)cc3s2)cc1 [PITTSBURGH COMPOUND B UNLABELLED]	–
17.1	Bld	Bld	Bld	Bld	Bld	Bld	N#Cc1ccc(-c2nc3ccc(O)cc3s2)cc1	–
0.47	Bld	Bld	Bld	–	–	–	Cc1nc2ccc(O)cc2s1	–
2.69	Bld	Bld	Bld	Bld	Bld	Bld	CS(=O)(=O)c1ccc(-c2nc3ccc(O)cc3s2)cc1	–
0.87	Bld	Bld	Bld	Bld	Bld	Bld	CC(=O)Nc1ccc(-c2nc3ccc(O)cc3s2)cc1	–
4.52	Bld	Bld	Bld	Bld	Bld	Bld	Oc1ccc2nc(-c3ccc(F)cc3)sc2c1	–
1.11	Bld	Bld	Bld	Bld	Bld	Bld	CN(C)c1ccc(-c2nc3ccc(O)cc3s2)cc1	–
